Test results from US20130266636A1, “METHODS FOR BLOCKING CELL PROLIFERATION AND TREATING DISEASES AND CONDITIONS RESPONSIVE TO CELL GROWTH INHIBITION” (THE REGENTS OF THE UNIVERSITY OF CALIFORNIA, priority 2010, published 2013).

How the values were obtained:
[1] = test system: A549/ATCC; experiment: NCI-60 panel growth inhibition; assay type: cell-based; details: Homo sapiens, NSC Lung Cancer, mutated RAS Yes, mutated BRAF No
From the text: (§1) Table 1 summarizes KG5's effect in 60 NCI cancer cell lines: the NCI-60 panel showing the half maximal growth inhibitory concentration of KG5 and the RAS and BRAF status in 60 human cancer cell lines.

[2] = test system: ACHN; experiment: NCI-60 panel growth inhibition; assay type: cell-based; details: Homo sapiens, Renal Cancer, mutated RAS No, mutated BRAF No
From the text: as §1

[3] = test system: CAKI-1; experiment: NCI-60 panel growth inhibition; assay type: cell-based; details: Homo sapiens, Renal Cancer, mutated RAS No, mutated BRAF No
From the text: as §1

[4] = test system: CCRF-CEM; experiment: NCI-60 panel growth inhibition; assay type: cell-based; details: Homo sapiens, Leukemia, mutated RAS Yes, mutated BRAF No
From the text: as §1

[5] = test system: COLO 205; experiment: NCI-60 panel growth inhibition; assay type: cell-based; details: Homo sapiens, Colon Cancer, mutated RAS Yes, mutated BRAF No
From the text: as §1

[6] = test system: DU-145; experiment: NCI-60 panel growth inhibition; assay type: cell-based; details: Homo sapiens, Prostate Cancer, mutated RAS No, mutated BRAF No
From the text: as §1

[7] = test system: EKVX; experiment: NCI-60 panel growth inhibition; assay type: cell-based; details: Homo sapiens, NSC Lung Cancer, mutated RAS No, mutated BRAF No
From the text: as §1

[8] = test system: HCC-2998; experiment: NCI-60 panel growth inhibition; assay type: cell-based; details: Homo sapiens, Colon Cancer, mutated RAS No, mutated BRAF No
From the text: as §1

[9] = test system: HCT-15; experiment: NCI-60 panel growth inhibition; assay type: cell-based; details: Homo sapiens, Colon Cancer, mutated RAS Yes, mutated BRAF Yes
From the text: as §1

[10] = test system: HL-60(TB); experiment: NCI-60 panel growth inhibition; assay type: cell-based; details: Homo sapiens, Leukemia, mutated RAS Yes, mutated BRAF No
From the text: as §1

[11] = test system: HOP-62; experiment: NCI-60 panel growth inhibition; assay type: cell-based; details: Homo sapiens, NSC Lung Cancer, mutated RAS Yes, mutated BRAF No
From the text: as §1

[12] = test system: HT29; experiment: NCI-60 panel growth inhibition; assay type: cell-based; details: Homo sapiens, HT-29; Colon Cancer; mutated RAS No; mutated BRAF Yes
From the text: as §1

[13] = test system: IGROV1; experiment: NCI-60 panel growth inhibition; assay type: cell-based; details: Homo sapiens, IGROV-1; Ovarian Cancer; mutated RAS No; mutated BRAF No
From the text: as §1

[14] = test system: LOX IMVI; experiment: NCI-60 panel growth inhibition; assay type: cell-based; details: Homo sapiens, Melanoma, mutated RAS No, mutated BRAF Yes
From the text: as §1

[15] = test system: MALME-3M; experiment: NCI-60 panel growth inhibition; assay type: cell-based; details: Homo sapiens, Melanoma, mutated RAS No, mutated BRAF Yes
From the text: as §1

[16] = test system: MDA-MB-231/ATCC; experiment: NCI-60 panel growth inhibition; assay type: cell-based; details: Homo sapiens, Breast Cancer, mutated RAS Yes, mutated BRAF Yes
From the text: as §1

[17] = test system: MDA-MB-468; experiment: NCI-60 panel growth inhibition; assay type: cell-based; details: Homo sapiens, Breast Cancer, mutated RAS No, mutated BRAF No
From the text: as §1

[18] = test system: MOLT-4; experiment: NCI-60 panel growth inhibition; assay type: cell-based; details: Homo sapiens, Leukemia, mutated RAS Yes, mutated BRAF No
From the text: as §1

[19] = test system: NCI-H226; experiment: NCI-60 panel growth inhibition; assay type: cell-based; details: Homo sapiens, NSC Lung Cancer, mutated RAS No, mutated BRAF No
From the text: as §1

[20] = test system: NCI-H23; experiment: NCI-60 panel growth inhibition; assay type: cell-based; details: Homo sapiens, NSC Lung Cancer, mutated RAS Yes, mutated BRAF No
From the text: as §1

[21] = test system: NCI-H322M; experiment: NCI-60 panel growth inhibition; assay type: cell-based; details: Homo sapiens, NSC Lung Cancer, mutated RAS No, mutated BRAF No
From the text: as §1

[22] = test system: NCI-H460; experiment: NCI-60 panel growth inhibition; assay type: cell-based; details: Homo sapiens, NSC Lung Cancer, mutated RAS Yes, mutated BRAF No
From the text: as §1

[23] = test system: NCI/ADR-RES; experiment: NCI-60 panel growth inhibition; assay type: cell-based; details: Homo sapiens, Ovarian Cancer, mutated RAS No, mutated BRAF No
From the text: as §1

[24] = test system: PC-3; experiment: NCI-60 panel growth inhibition; assay type: cell-based; details: Homo sapiens, Prostate Cancer, mutated RAS No, mutated BRAF No
From the text: as §1

[25] = test system: SF-295; experiment: NCI-60 panel growth inhibition; assay type: cell-based; details: Homo sapiens, CNS Cancer, mutated RAS No, mutated BRAF No
From the text: as §1

[26] = test system: SF-539; experiment: NCI-60 panel growth inhibition; assay type: cell-based; details: Homo sapiens, CNS Cancer, mutated RAS No, mutated BRAF No
From the text: as §1

[27] = test system: SK-MEL-28; experiment: NCI-60 panel growth inhibition; assay type: cell-based; details: Homo sapiens, Melanoma, mutated RAS No, mutated BRAF Yes
From the text: as §1

[28] = test system: U251; experiment: NCI-60 panel growth inhibition; assay type: cell-based; details: Homo sapiens, U-251; CNS Cancer; mutated RAS No; mutated BRAF No
From the text: as §1

[29] = test system: UACC-62; experiment: NCI-60 panel growth inhibition; assay type: cell-based; details: Homo sapiens, Melanoma, mutated RAS No, mutated BRAF Yes
From the text: as §1

[30] = target: RAF dimerization (BRAF and CRAF) (Homo sapiens, UniProt P04049); experiment: RAF dimerization, immunoblot of BRAF and CRAF immunoprecipitates from A549 cells; assay type: cell-based
Procedure: FIG. 11 illustrates immunoblot analysis of BRAF and CRAF immunoprecipitates from A549 cells treated with PD0325901, Sorafenib, L-779450, PLX4720, KG5 or KG1.
Immunoprecipitation and Immunoblot Analysis Cells were lysed in either NP40 lysis buffer (150 mM NaCl, 50 mM Tris Base pH 7.4, 1% NP40) or RIPA buffer (50 mM Tris pH 7.4, 100 mM NaCl, 0.1% SDS) supplemented with complete protease inhibitor mixture (Roche), 50 mM NaF and 1 mM Na3VO4 and centrifuged at 13,000×g for 10 min at 4° C. Protein concentration was determined by BCA assay. […] of protein were immunoprecipitated with […] of anti-Flag (Sigma), anti-CRAF (BD Pharmingen), anti-Plk1 (Abcam), anti-γ-Tubulin (sigma) or anti-cenpF (Santa Cruz) antibodies overnight at 4° C. followed by capture with 25 μl of protein A/G (Pierce). Beads were washed five times, eluted in boiling Laemmli buffer, resolved on 10% SDS-PAGE and immunoblotting was performed with anti-Plk1 antibody (Abcam), anti-CRAF antibody (BD Pharmingen), anti-Aurora A (Abcam), anti-phospho-S338 CRAF (Cell Signaling), anti-phospho-T210 Plk1 or anti-phospho-T288 Aurora A (Cell signaling) diluted 1:1000. For immunoblot analysis, […] of protein was boiled in […]

[31] = test system: human breast (T47D) carcinoma cell line; experiment: Cell viability assay in T47D cells; assay type: cell-based
[32] = test system: p-MEK and p-ERK; details: cited from earlier work

RAF dimerization (BRAF and CRAF), sequence (P04049 whole entry): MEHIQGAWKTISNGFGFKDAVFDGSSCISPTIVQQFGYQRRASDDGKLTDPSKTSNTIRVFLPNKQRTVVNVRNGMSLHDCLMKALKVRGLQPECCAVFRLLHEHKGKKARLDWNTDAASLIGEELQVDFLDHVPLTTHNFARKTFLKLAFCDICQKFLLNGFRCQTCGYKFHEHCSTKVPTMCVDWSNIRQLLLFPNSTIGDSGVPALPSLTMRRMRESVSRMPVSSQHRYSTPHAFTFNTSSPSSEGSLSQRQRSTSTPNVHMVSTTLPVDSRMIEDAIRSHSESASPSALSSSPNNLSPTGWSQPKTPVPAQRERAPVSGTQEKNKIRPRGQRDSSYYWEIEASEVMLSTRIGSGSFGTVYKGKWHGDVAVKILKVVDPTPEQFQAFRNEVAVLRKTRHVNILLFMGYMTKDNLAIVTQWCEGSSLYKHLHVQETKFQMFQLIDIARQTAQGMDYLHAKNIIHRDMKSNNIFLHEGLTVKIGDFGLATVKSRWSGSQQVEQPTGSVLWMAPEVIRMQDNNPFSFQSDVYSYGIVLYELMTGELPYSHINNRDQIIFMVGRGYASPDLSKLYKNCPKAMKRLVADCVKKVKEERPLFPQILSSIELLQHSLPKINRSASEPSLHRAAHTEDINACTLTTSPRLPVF

## CSc1nc(N)cc(Oc2ccc(-c3nnc(Nc4cccc(C(F)(F)F)c4)[nH]3)cc2)n1 [KG5]
[1]
  GI50: 501 nM
[2]
  GI50: 851 nM
[3]
  GI50: 417 nM
[4]
  GI50: 380 nM
[5]
  GI50: 407 nM
[6]
  GI50: 457 nM
[7]
  GI50: 501 nM
[8]
  GI50: 1410 nM
[9]
  GI50: 490 nM
[10]
  GI50: 407 nM
[11]
  GI50: 589 nM
[12]
  GI50: 363 nM
[13]
  GI50: 447 nM
[14]
  GI50: 851 nM
[15]
  GI50: 316 nM
[16]
  GI50: 1480 nM
[17]
  GI50: 191 nM
[18]
  GI50: 912 nM
[19]
  GI50: 1780 nM
[20]
  GI50: 525 nM
[21]
  GI50: 525 nM
[22]
  GI50: 363 nM
[23]
  GI50: 437 nM
[24]
  GI50: 282 nM
[25]
  GI50: 427 nM
[26]
  GI50: 347 nM
[27]
  GI50: 1580 nM
[28]
  GI50: 468 nM
[29]
  GI50: 501 nM
[30]
  RAF dimerization: prevents RAF dimerization
[31]; T47D
  cell viability: decrease cell viability
[31]; T47D breast cancer cells
  EC50: approach picomolar (pM) EC50s
[32]; bFGF- or VEGF-stimulated endothelial cells
  p-MEK and p-ERK: blocked
[32]; endothelial cells
  bFGF- or VEGF-mediated phosphorylation of MEK on S217/S221: inhibited
  bFGF- or VEGF-mediated phosphorylation of MEK on S298: not on S298
